# Laboratory results as given in publication PMC3871636 (PLoS ONE, 2013).
# Assays:
# [1] = biological target: CYP3A4 (double-labeled (C64/C468)-DY/ER) (Homo sapiens, UniProt P08684, form not given/S18F); assay: Steady-state LRET titration (delayed emission); format: binding; conditions: human, purified double-labeled CYP3A4 C64/C468-DY/ER protein, pH 7.4
# Experimental: (§1) All absorbance and fluorescence assays (including the time-resolved fluorescence measurements) were performed at a protein concentration ≤1 µM at 25°C with continuous stirring. Absorbance spectra were recorded with an S2000 rapid scanning CCD spectrometer (Ocean Optics). Ligand binding assays were done in 100 mM Na-Hepes buffer, pH 7.4, containing 0.5 mM EDTA.
# (§2) Fluorescence-based ligand binding assays were done under anaerobic conditions. Anaerobiosis was achieved using an oxygen-scavenging system consisting of protecatechuate-3,4-dioxygenase (0.5 units/ml) and 5 mM protocatechuic acid. The steady state and time-resolved phosphorescence measurements were performed with the use of a Cary Eclipse fluorescence spectrophotometer (Varian/Agilent Technologies). The excitation wavelength was set to 540 nm. Spectra were taken from 650 to 860 nm with 100 µs delay.
# (§3) Quantitative interpretation of LRET results was also based on the use of PCA applied to a series of emission spectra normalized on integral intensity. […] Intensity of the donor and acceptor fluorescence obtained in this way were used in determination of the efficiency of steady-state LRET using the equation [drawing 1] (Eq.1) where I ad is emission intensity of the acceptor, I da is the residual donor emission in the presence of acceptor (I da), Φ a and Φ d are the quantum yield of the fluorescence of acceptor and the quantum yield of the phosphorescence of donor, respectively.
# (§4) Distances were calculated using the equation: [drawing 3] (Eq.3) where R 0 is the Förster distance, and R is the distance between the donor and acceptor. R 0 was calculated with the use of PhotoChemCad software. In these calculations, we used the values of the orientation factor (κ^2) and the refractive index (n) of 0.667 and 1.4, respectively.
# (§5) When fitting the results of titration experiments, where the changes in the monitored signal A S (fraction of the enzyme in the high-spin state, intensity or the lifetime of the donor phosphorescence at a given substrate concentration) were assumed to be proportional to [ES], this equation was complemented with the offset A 0 and the scaling factor A max to yield the following relationship: [drawing 5] (Eq.5)
# [2] = biological target: T1, double-labeled CYP3A4 (C64/C468)-ER/DY (Homo sapiens, UniProt P08684, S18F, form not given); assay: Steady-state LRET titration (delayed emission); format: binding
# T1 sequence (P08684 13-503 S18F, form open): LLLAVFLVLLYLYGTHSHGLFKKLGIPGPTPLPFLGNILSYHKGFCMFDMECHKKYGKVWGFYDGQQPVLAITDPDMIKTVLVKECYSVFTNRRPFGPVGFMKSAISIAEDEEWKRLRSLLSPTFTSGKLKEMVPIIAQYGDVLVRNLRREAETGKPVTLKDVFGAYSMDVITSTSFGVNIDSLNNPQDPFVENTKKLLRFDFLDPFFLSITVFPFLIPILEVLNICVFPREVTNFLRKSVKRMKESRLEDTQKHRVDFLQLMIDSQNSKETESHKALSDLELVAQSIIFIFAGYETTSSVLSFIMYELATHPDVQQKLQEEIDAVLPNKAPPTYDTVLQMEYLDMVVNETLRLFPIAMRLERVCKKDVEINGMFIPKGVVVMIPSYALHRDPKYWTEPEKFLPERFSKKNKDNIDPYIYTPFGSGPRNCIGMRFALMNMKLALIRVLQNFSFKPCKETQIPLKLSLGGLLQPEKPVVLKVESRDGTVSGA
# Experimental: as §1, §2, §3, §4, §5
# [3] = biological target: T2, double-labeled CYP3A4 (C64/C468)-DY/ER (Homo sapiens, UniProt P08684, S18F, form not given); assay: Steady-state LRET titration (delayed emission); format: binding
# T2 sequence (P08684 13-503 S18F, form open): as above
# Experimental: as §1, §2, §3, §4, §5
# [4] = biological target: T3, double-labeled CYP3A4 C377/C468-DY/ER (Homo sapiens, UniProt P08684, S18F, form not given); assay: Steady-state LRET titration (delayed emission); format: binding; conditions: Table S2; protein C377/C468-ER/DY; same ligand concentrations
# T3 sequence (P08684 13-503 S18F, form open): as above
# Experimental: as §1, §2, §3, §4, §5
# [5] = biological target: CYP3A4 (double-labeled (C64/C468)-ER/DY) (Homo sapiens, UniProt P08684, form not given/S18F); assay: Steady-state LRET titration (delayed emission); format: binding; conditions: human, purified double-labeled CYP3A4 C64/C468-ER/DY protein, pH 7.4
# Chain of CYP3A4 (double-labeled (C64/C468)-ER/DY) (P08684 13-503 S18F, form open): as above
# Experimental: as §1, §2, §3, §4, §5
# [6] = biological target: T1, double-labeled CYP3A4 (C64/C468)-ER/DY; assay: Time-resolved LRET (phosphorescence lifetime measurements)
# Description: (§6) The excitation wavelength was set to 540 nm.
# [7] = biological target: T2, double-labeled CYP3A4 (C64/C468)-DY/ER; assay: as above
# Description: as §6
# [8] = biological target: T3, double-labeled CYP3A4 C377/C468-DY/ER; assay: as above
# Description: as §6
# [9] = biological target: T4, double-labeled CYP3A4 C64/C121-DY/ER (Homo sapiens, UniProt P08684, A121C/C239S/C377S/C468A/C98S/S18F); assay: as above
# T4 sequence (P08684 with tags, fused parts or gaps S18F/C98S/A121C/C239S/C377S/C468A limits assumed): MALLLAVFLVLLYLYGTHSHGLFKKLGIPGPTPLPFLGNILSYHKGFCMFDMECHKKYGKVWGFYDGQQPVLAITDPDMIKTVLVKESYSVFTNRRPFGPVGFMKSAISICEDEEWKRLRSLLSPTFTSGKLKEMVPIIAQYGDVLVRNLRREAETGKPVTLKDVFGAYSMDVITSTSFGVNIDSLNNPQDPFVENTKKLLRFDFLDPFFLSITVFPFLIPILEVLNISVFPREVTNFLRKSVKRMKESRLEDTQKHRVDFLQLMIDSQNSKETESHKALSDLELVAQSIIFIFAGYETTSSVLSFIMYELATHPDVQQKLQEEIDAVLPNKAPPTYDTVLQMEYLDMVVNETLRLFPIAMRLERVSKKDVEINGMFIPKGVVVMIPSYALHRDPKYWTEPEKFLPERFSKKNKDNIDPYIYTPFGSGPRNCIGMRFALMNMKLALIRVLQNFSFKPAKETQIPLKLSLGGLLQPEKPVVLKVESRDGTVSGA
# Experimental: as §1, §2
# The treatment of the time-resolved decay traces was performed using a bi-exponential approximation. The efficiency of time-resolved LRET was calculated using the equation [drawing 2] (Eq.2)
# In this equation τda and τd designate the average lifetime of the excited state of the donor in the presence and absence of the acceptor, respectively. These average lifetimes are determined as τ = α1τ1+α2τ2, where τ1,2 and α1,2 stay for the lifetime and the relative amplitude of each of the two exponential terms. In our calculations of the lifetime in double-labeled C64/C468, C377/C468 and C64/C121 proteins we used the lifetimes of phosphorescence measured with the respective proteins labeled with ERIA at a label:protein ratio 2∶1 as the estimates of τd.
# as §4
# [10] = biological target: T4, double-labeled CYP3A4 C64/C121-DY/ER; assay: Steady-state LRET titration (delayed emission); conditions: Table S2; protein C64/C121-ER/DY; same ligand concentrations
# Experimental: as §1, §2, §3, §4, §5
# CYP3A4 (C64/C468 mutant) = CYP3A4 (C64/C468 mutant) (Homo sapiens, UniProt P08684, form not given/S18F); assay: Ligand-induced spin shift, absorbance titration; format: binding; conditions: human, purified CYP3A4(C64/C468) mutant protein, pH 7.4
# Chain of CYP3A4 (C64/C468 mutant) (P08684 13-503 S18F, form open): as the sequence (P08684 13-503 S18F, form open) above
# Experimental: as §1
# (§7) Absorbance spectra obtained in titration experiments were analyzed with a principal component analysis (PCA) procedure complemented with least-square approximation of the principal vectors with a combination of the prototypical spectra of the CYP3A4 low-spin, high-spin and Type II-substrate-bound ferric CYP3A4 P450 states as described, [31].
# as §5
# [11] = biological target: CYP3A4 (C377/C468 mutant) (Homo sapiens, UniProt P08684, form not given/S18F); assay: Ligand-induced spin shift, absorbance titration; format: binding; conditions: human, purified CYP3A4(C377/C468) mutant protein, pH 7.4
# Chain of CYP3A4 (C377/C468 mutant) (P08684 13-503 S18F, form open): as above
# Experimental: as §1, §7, §5
# [12] = biological target: CYP3A4 (double-labeled C64/C468-ER/DY) (Homo sapiens, UniProt P08684, form not given/S18F); assay: Ligand-induced spin shift, absorbance titration; format: binding; conditions: human, purified double-labeled CYP3A4 C64/C468-ER/DY protein, pH 7.4
# Chain of CYP3A4 (double-labeled C64/C468-ER/DY) (P08684 13-503 S18F, form open): as above
# Experimental: as §1, §7, §5
# [13] = Table S2, C64/C468-ER/DY, same ligand concentrations
# [14] = Table S2, C64/C468-DY/ER, same ligand concentrations
# [15] = Table S1, (C64/C468)-ER/DY, same ligand concentrations
# [16] = Table S1, (C64/C468)-DY/ER, same ligand concentrations
# [17] = Table S1, protein (C377/C468)-ER/DY, same ligand concentrations
# [18] = Table S2, protein C377/C468-ER/DY, same ligand concentrations
# [19] = Table S1, protein (C64/C121)-ER/DY, same ligand concentrations
# [20] = Table S2, protein C64/C121-ER/DY, same ligand concentrations
# Chain of CYP3A4 (double-labeled (C64/C468)-DY/ER) (P08684 13-503 S18F, form open): as above
smiles,measurement,setting,value
"C[C@]12CC[C@H]3[C@@H](CCC4=CC(=O)CC[C@@]43C)[C@@H]1CC[C@@H]2O [Testosterone, testosterone]",Kd,[1],16.4 ± 3.5 µM
same,"ΔR (change in interprobe distance), steady-state fluorescence",[2]; (C64/C468)-ER/DY,3.1±1.0 Å
same,"R (interprobe distance with ligand), steady-state measurements",[2]; [13],42.2 ± 1.0 Å
same,"ΔR, steady-state measurements",[2]; [13],3.1 ± 1.0 Å
same,"ΔR (change in interprobe distance), steady-state fluorescence",[3]; (C64/C468)-DY/ER,5.5±1.9 Å
same,"R (interprobe distance with ligand), steady-state measurements",[3]; [14],40.4 ± 1.9 Å
same,"ΔR, steady-state measurements",[3]; [14],5.5 ± 1.9 Å
same,"R (interprobe distance with ligand), steady-state measurements",[4],46.7 ± 0.7 Å
same,"ΔR, steady-state measurements",[4],2.0 ± 0.7 Å
same,Kd,[5],22.8 ± 3.6 µM
same,"ΔR (change in interprobe distance), lifetime measurements","[6]; (C64/C468)-ER/DY, nearly-saturating ligand: ANF 100 µM, bromocriptine 2.5 µM, cholesterol 50 µM, testosterone 100 µM",4.5±0.5 Å
same,τ1 (phosphorescence decay time with ligand),"[6]; Table S1, (C64/C468)-ER/DY, 1-PB 40 µM, ANF 100 µM, BCT 2.5 µM, cholesterol 100 µM, testosterone 100 µM, bi-exponential fit",67 ± 6 µs
same,F1 (fraction of first exponential),[6]; [15],48 ± 2%
same,τ2 (phosphorescence decay time with ligand),[6]; [15],267 ± 11 µs
same,τav (average phosphorescence lifetime with ligand),[6]; [15],171 ± 4 µs
same,"R (interprobe distance with ligand), lifetime measurements",[6]; [13],40.8 ± 0.6 Å
same,"ΔR, lifetime measurements",[6]; [13],4.5 ± 0.6 Å
same,τ1 (phosphorescence decay time with ligand),"[7]; Table S1, (C64/C468)-DY/ER, 1-PB 40 µM, ANF 100 µM, BCT 2.5 µM, cholesterol 100 µM, testosterone 100 µM, bi-exponential fit",69 ± 1 µs
same,F1 (fraction of first exponential),[7]; [16],39 ± 8%
same,τ2 (phosphorescence decay time with ligand),[7]; [16],247 ± 2 µs
same,τav (average phosphorescence lifetime with ligand),[7]; [16],176 ± 2 µs
same,"R (interprobe distance with ligand), lifetime measurements",[7]; [14],41.6 ± 0.3 Å
same,"ΔR, lifetime measurements",[7]; [14],4.8 ± 0.3 Å
same,τ1 (phosphorescence decay time with ligand),"[8]; Table S1, protein (C377/C468)-ER/DY, 1-PB 40 µM, ANF 100 µM, BCT 2.5 µM, cholesterol 100 µM, testosterone 100 µM, bi-exponential fit",42 ± 9 µs
same,F1 (fraction of first exponential),[8]; [17],26 ± 7%
same,τ2 (phosphorescence decay time with ligand),[8]; [17],193 ± 5 µs
same,τav (average phosphorescence lifetime with ligand),[8]; [17],152 ± 12 µs
same,"R (interprobe distance with ligand), lifetime measurements",[8]; [18],45.3 ± 3.0 Å
same,"ΔR, lifetime measurements",[8]; [18],8.5 ± 3.0 Å
same,τ1 (phosphorescence decay time with ligand),"[9]; Table S1, protein (C64/C121)-ER/DY, 1-PB 40 µM, ANF 100 µM, BCT 2.5 µM, cholesterol 100 µM, testosterone 100 µM, bi-exponential fit",66 ± 9 µs
same,F1 (fraction of first exponential),[9]; [19],38 ± 4%
same,τ2 (phosphorescence decay time with ligand),[9]; [19],228 ± 23 µs
same,τav (average phosphorescence lifetime with ligand),[9]; [19],165 ± 9 µs
same,"R (interprobe distance with ligand), lifetime measurements",[9]; [20],36.9 ± 0.7 Å
same,"ΔR, lifetime measurements",[9]; [20],1.9 ± 0.7 Å
same,"R (interprobe distance with ligand), steady-state measurements",[10],43.9 ± 0.5 Å
same,"ΔR, steady-state measurements",[10],1.3 ± 0.5 Å
same,Kd,CYP3A4 (C64/C468 mutant),39 ± 10 µM
same,Kd,[11],51 ± 8 µM
same,Kd,[12],38 ± 6 µM
